What was measured:
[1] = test system: SARS-CoV-2; assay: Antiviral activity against pseudovirus SARS-CoV-2 spike protein infected in HEK293 cells expressing ACE2 assessed as reduction in pseudotyped particle entry incubated for 48 hrs incubation by luminescence assay; assay type: functional, organism-based; conditions: Severe acute respiratory syndrome coronavirus 2, HEK293, 48 h
[2] = test system: SARS-CoV-2; assay: Antiviral activity against pseudovirus SARS-CoV-2 spike protein infected in HEK293 cells expressing ACE2 assessed as reduction in pseudotyped particle entry incubated for 48 hrs incubation by luminescence assay relative to control; assay type: functional, Severe acute respiratory syndrome coronavirus 2
[3] = test system: Vesicular stomatitis virus; assay: microbe, parasite or virus in culture; assay type: functional, organism-based
[4] = test system: SARS-CoV-2; assay: microbe, parasite or virus in culture; assay type: functional, organism-based, Vero E6; conditions: Severe acute respiratory syndrome coronavirus 2, Vero C1008, 72 h
[5] = test system: SARS-CoV-2; assay type: functional, Severe acute respiratory syndrome coronavirus 2, Vero E6; conditions: time 72 hrs
[6] = test system: HEK293; assay: Cytotoxicity against HEK293 cells expressing ACE2 cells assessed as reduction in cell viability; conditions: Homo sapiens
[7] = Cytotoxicity against HEK293 cells expressing ACE2 cells assessed as reduction in cell viability relative to control; conditions: human
[8] = Cytotoxicity against African green monkey Vero E6 cells expressing ACE2 cells assessed as reduction in cell viability relative to control; conditions: chlorocebus sabaeus
[9] = test system: SARS-CoV; assay: microbe, parasite or virus in culture; assay type: functional, organism-based; conditions: Severe acute respiratory syndrome-related coronavirus, Huh-7, 24 h
[10] = test system: Vero C1008; assay: Cytotoxicity against African green monkey Vero E6 cells expressing ACE2 cells assessed as reduction in cell viability; conditions: Chlorocebus sabaeus
[11] = Vesicular stomatitis virus, read-out: IC50

Compound `CC(Nc1nc(N2CCC(=O)CC2)nc2ccccc12)c1ccccc1` (configuration not stated) has an IC50 [1] of 31.6 µM, an Efficacy [2] of 100% and an IC50 [3, 11] of over 57.5 µM. For the same compound, the IC50 [4] was 13 µM, the Efficacy [5] was 48.5% and the IC50 [6] was over 57.5 µM. For the same compound, the Emax [7] was 0% and the Emax [8] was 0%.

`CC(Nc1nc(N2CCNCC2)nc2ccccc12)c1c(F)cccc1F` (configuration not stated) gave an IC50 [1] of 22.4 µM, an Efficacy [2] of 88.9% and an IC50 [3, 11] of over 57.5 µM. It also gave an IC50 [4] of 14.1 µM, an Efficacy [5] of 79.9% and an IC50 [6] of over 57.5 µM. It also gave an Emax [7] of 0%, an IC50 [9] of 1.65 µM and an Emax [8] of 12.8%.

`CC(Nc1nc(N2CCOCC2)nc2ccccc12)c1ccccc1` (configuration not stated) showed an IC50 [1] of 22.4 µM, an Efficacy [2] of 94.1% and an IC50 [3, 11] of over 57.5 µM. It also gave an IC50 [4] of over 20 µM, an IC50 [6] of over 57.5 µM and an Emax [7] of 25.1%. It also gave an IC50 [10] of over 20 µM and an Emax [8] of 23%.

`CC(Nc1nc(N2CCNCC2)nc2ccc(F)cc12)c1ccccc1` (configuration not stated) gave an IC50 [1] of 15.8 µM, an Efficacy [2] of 70.6% and an IC50 [3, 11] of over 57.5 µM. It also gave an IC50 [4] of 7.94 µM, an Efficacy [5] of 101.3% and an IC50 [6] of over 57.5 µM. The Emax [7] was 0%, the IC50 [10] was over 20 µM and the Emax [8] was 11.8%.

Compound `CC(Nc1nc(N2CCNCC2)nc2ccc(-c3ccccc3)cc12)c1ccccc1` (configuration not stated) has an IC50 [1] of 15.8 µM, an Efficacy [2] of 100% and an IC50 [3, 11] of over 57.5 µM. The IC50 [4] was 7.94 µM, the Efficacy [5] was 81.6% and the IC50 [6] was over 57.5 µM. The Emax [7] was 20.8%, the IC50 [10] was 14.1 µM and the Emax [8] was 88.5%.

With `CC(Nc1nc(N2CCNCC2)nc2cc(-c3ccccc3)ccc12)c1ccccc1` (configuration not stated) the IC50 [1] was 12.6 µM, the IC50 [3, 11] was 35.5 µM and the IC50 [4] was 4.47 µM. For the same compound, the Efficacy [5] was 79%, the IC50 [6] was 39.8 µM and the Emax [7] was 96.7%. It also gave an IC50 [10] of 7.94 µM and an Emax [8] of 116%.

With `CC(Nc1nc(N2CCNCC2)nc2ccccc12)c1ccccc1N` (configuration not stated) the Efficacy [2] was 70.2%, the IC50 [3, 11] was 39.8 µM and the IC50 [4] was 12.6 µM. It also gave an Efficacy [5] of 31.5%, an IC50 [6] of over 57.5 µM and an Emax [7] of 0%. It also gave an IC50 [10] of over 20 µM and an Emax [8] of 0%.

For `CN1CCC[C@@H]1CCO[C@](C)(c1ccccc1)c1ccc(Cl)cc1.O=C(O)/C=C/C(=O)O` [CLEMASTINE FUMARATE], the IC50 [3] was “Not Active”.

`CC(Nc1nc(N2CCNCC2)nc2cc(Br)ccc12)c1ccccc1` (configuration not stated) gave an IC50 [1] of 8.91 µM, an Efficacy [2] of 97.1% and an IC50 [3, 11] of 7.94 µM. It also gave an IC50 [4] of 7.94 µM, an Efficacy [5] of 139.9% and an IC50 [6] of 39.8 µM. The Emax [7] was 72.1%, the IC50 [10] was 14.1 µM and the Emax [8] was 91.5%.

Work on `C[C@H](Nc1nc(N2CCNCC2)nc2ccccc12)c1ccccc1` yielded an IC50 [1] of 15.8 µM, an Efficacy [2] of 94.3% and an IC50 [3, 11] of over 57.5 µM. The Efficacy [5] was 87.8%, the IC50 [6] was over 57.5 µM and the Emax [7] was 0%. For the same compound, the IC50 [10] was over 20 µM and the Emax [8] was 0%.
